From patent US20130203778A1, “PHARMACEUTICAL COMPOSITION COMPRISING A PYRIMIDINEONE DERIVATIVE” (Glenmark Pharmaceuticals S.A., priority 2010, published 2013)

Legend:
[1] = Solubility of Compound I with various hydrophilic carriers and in solid dispersion composition form at 25° C. (HPLC assay); type: physicochemical
Procedure: Buffers were prepared as per USP. Compound I (100 mg) equivalent was added to various buffers (100 ml) in presence of various hydrophilic carriers. The samples were sonicated for 15 minutes. A solid dispersion composition form of Compound I was also evaluated for solubility on similar lines. Quantification was done by assay method on HPLC by comparison with standard solution. The assay provided the relative amount of drug (mg/ml) in the sample solution. The results were extrapolated to represent the solubility in 900 ml of buffer solutions.
Preparation of Test solution: Compound I (100 mg) was added to various buffers (100 ml) in presence of various surfactants. The samples were sonicated for 15 minutes. Evaluation was done by assay method on HPLC by comparison with standard solution.
Mixture of 0.01M Ammonium Acetate Buffer and Acetonitrile in the ratio of 20:80% v/v.
Mixture of water and acetonitrile in the ratio of 20:80 v/v.
Column: Hypersil BDS C18, 150×4.6 mm, 5 μm
Column temperature: 25° C.

[2] = Qualitative solubility of Compound I in water and organic solvents; type: physicochemical
[3] = with Cetrimide, ratio (w/w) 1:10
[4] = with Cremophor EL, ratio (w/w) 1:10
[5] = with Gelucire 44/14, ratio (w/w) 1:10
[6] = with Hydroxypropyl beta-cyclodextrin, ratio (w/w) 1:10, BLD = Below limit of detection (0.01 ppm)
[7] = with Labrafil, ratio (w/w) 1:10
[8] = with Labrasol, ratio (w/w) 1:10
[9] = with Poloxamer 407, Compound I to carrier ratio (w/w) 1:1
[10] = with Sodium lauryl sulphate, ratio (w/w) 1:5, BLD = Below limit of detection (0.01 ppm)
[11] = with Tween 80, ratio (w/w) 1:10
[12] = with Tween 80, ratio (w/w) 1:30
[13] = with Vitamin E TPGS, ratio (w/w) 1:10
[14] = without hydrophilic carrier (1:0), BLD = Below limit of detection (0.01 ppm)

COc1cccc(/C=C/c2nc3sccn3c(=O)c2-c2ccc(OC(F)(F)F)cc2)c1OCC1CC1 [Compound I, 7-{(E)-2-[2-(cyclopropylmethoxy)-3-methoxyphenyl]vinyl}-6-(4-trifluoromethoxyphenyl)-5H-[1,3]thiazolo-[3,2-a]pyrimidin-5-one]
Solubility, Acetate Buffer pH 4.5 [1, 3]: 0.27 mg/900 ml | Solubility, Phosphate Buffer pH 6.8 [1, 3]: 0.45 mg/900 ml | Solubility, Simulated gastric fluid pH 1.2 [1, 3]: 0.54 mg/900 ml | Solubility, Acetate Buffer pH 4.5 [1, 4]: 2.61 mg/900 ml | Solubility, Phosphate Buffer pH 6.8 [1, 4]: 2.52 mg/900 ml | Solubility, Simulated gastric fluid pH 1.2 [1, 4]: 0.54 mg/900 ml | Solubility, Acetate Buffer pH 4.5 [1, 5]: 1.17 mg/900 ml | Solubility, Phosphate Buffer pH 6.8 [1, 5]: 0.99 mg/900 ml | Solubility, Simulated gastric fluid pH 1.2 [1, 5]: 0.09 mg/900 ml | Solubility, Acetate Buffer pH 4.5 ([1]; with HPMC, ratio (w/w) 1:5): 0.18 mg/900 ml | Solubility, Phosphate Buffer pH 6.8 ([1]; with HPMC, ratio (w/w) 1:5): 0.81 mg/900 ml | Solubility, Simulated gastric fluid pH 1.2 ([1]; with HPMC, ratio (w/w) 1:5): 0.72 mg/900 ml | Solubility, Acetate Buffer pH 4.5 [1, 6]: BLD | Solubility, Phosphate Buffer pH 6.8 [1, 6]: BLD | Solubility, Simulated gastric fluid pH 1.2 [1, 6]: BLD | Solubility, Acetate Buffer pH 4.5 [1, 7]: 0.27 mg/900 ml | Solubility, Phosphate Buffer pH 6.8 [1, 7]: 0.18 mg/900 ml | Solubility, Simulated gastric fluid pH 1.2 [1, 7]: 0.09 mg/900 ml | Solubility, Acetate Buffer pH 4.5 [1, 8]: 0.18 mg/900 ml | Solubility, Phosphate Buffer pH 6.8 [1, 8]: 0.72 mg/900 ml | Solubility, Simulated gastric fluid pH 1.2 [1, 8]: 0.36 mg/900 ml | Solubility, Acetate Buffer pH 4.5 [1, 9]: 0.18 mg/900 ml | Solubility, Phosphate Buffer pH 6.8 [1, 9]: 0.09 mg/900 ml | Solubility, Simulated gastric fluid pH 1.2 [1, 9]: 0.27 mg/900 ml | Solubility, Acetate Buffer pH 4.5 [1, 10]: BLD | Solubility, Phosphate Buffer pH 6.8 [1, 10]: BLD | Solubility, Simulated gastric fluid pH 1.2 [1, 10]: BLD | Solubility, Acetate Buffer pH 4.5 [1, 11]: 3.06 mg/900 ml | Solubility, Phosphate Buffer pH 6.8 [1, 11]: 3.69 mg/900 ml | Solubility, Simulated gastric fluid pH 1.2 [1, 11]: 0.45 mg/900 ml | Solubility, Acetate Buffer pH 4.5 [1, 12]: 8.82 mg/900 ml | Solubility, Phosphate Buffer pH 6.8 [1, 12]: 15.84 mg/900 ml | Solubility, Simulated gastric fluid pH 1.2 [1, 12]: 1.44 mg/900 ml | Solubility, Acetate Buffer pH 4.5 [1, 13]: 1.35 mg/900 ml | Solubility, Phosphate Buffer pH 6.8 [1, 13]: 1.80 mg/900 ml | Solubility, Simulated gastric fluid pH 1.2 [1, 13]: 0.63 mg/900 ml | Solubility, Acetate Buffer pH 4.5 [1, 14]: BLD | Solubility, Phosphate Buffer pH 6.8 [1, 14]: BLD | Solubility, Simulated gastric fluid pH 1.2 [1, 14]: BLD** | Solubility in acetone [2]: freely soluble | Solubility in chloroform [2]: freely soluble | Solubility in ethanol [2]: very slightly soluble | Solubility in methanol [2]: slightly soluble | Solubility in methylene dichloride [2]: freely soluble | Solubility in water ([2]; aqueous media having different pH ranging over 1.2 to 6.8): practically insoluble
